What was measured:
hNpr1 [1] = molecular target: T1, hNpr1 (Homo sapiens, UniProt P16066); experiment: Cell-free hNpr1 membrane cyclase assay (cGMP ELISA); type: biochemical; details: for Ki: calculated with Cheng-Prusoff equation from Table 4, read-out: Ki hNpr1 cyclase assay [μM] (mean ± SEM)
T1 sequence (P16066 33-1061): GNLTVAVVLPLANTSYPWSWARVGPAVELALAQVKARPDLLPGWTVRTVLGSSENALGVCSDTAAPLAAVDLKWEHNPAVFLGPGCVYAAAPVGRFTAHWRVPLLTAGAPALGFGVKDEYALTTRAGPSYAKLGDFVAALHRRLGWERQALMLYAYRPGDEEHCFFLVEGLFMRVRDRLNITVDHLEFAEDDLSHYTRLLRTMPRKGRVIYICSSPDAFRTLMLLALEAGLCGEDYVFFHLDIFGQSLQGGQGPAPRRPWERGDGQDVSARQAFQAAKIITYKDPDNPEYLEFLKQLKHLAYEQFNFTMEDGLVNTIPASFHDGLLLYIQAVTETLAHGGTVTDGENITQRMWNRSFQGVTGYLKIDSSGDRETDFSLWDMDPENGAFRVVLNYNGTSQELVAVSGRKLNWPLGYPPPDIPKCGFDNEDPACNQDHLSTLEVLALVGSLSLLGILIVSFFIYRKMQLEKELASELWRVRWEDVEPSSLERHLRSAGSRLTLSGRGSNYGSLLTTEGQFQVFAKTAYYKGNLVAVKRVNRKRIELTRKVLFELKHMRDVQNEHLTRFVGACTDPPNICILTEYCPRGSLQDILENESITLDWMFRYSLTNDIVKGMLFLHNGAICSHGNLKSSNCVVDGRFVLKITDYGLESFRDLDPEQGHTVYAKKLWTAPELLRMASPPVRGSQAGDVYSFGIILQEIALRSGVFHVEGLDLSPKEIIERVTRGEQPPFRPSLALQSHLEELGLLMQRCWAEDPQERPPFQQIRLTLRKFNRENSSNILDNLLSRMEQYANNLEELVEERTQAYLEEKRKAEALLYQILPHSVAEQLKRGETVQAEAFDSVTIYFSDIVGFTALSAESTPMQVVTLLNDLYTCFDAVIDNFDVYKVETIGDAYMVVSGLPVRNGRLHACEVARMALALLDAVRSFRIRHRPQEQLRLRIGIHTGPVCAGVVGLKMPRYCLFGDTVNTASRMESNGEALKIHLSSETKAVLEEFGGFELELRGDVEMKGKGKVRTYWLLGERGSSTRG

hNpr1 [2] = molecular target: T1, hNpr1; experiment: qHTS GloSensor cGMP assay, hNppa-stimulated HEK-hNpr1-cGMP-sensor cells (1536-well); type: cell-based; details: for Imax, HEK-hNpr1-cGMP-sensor cells: −100% = 38.3 μM A-71915
From the text: In order to identify small molecular compounds that inhibit the Npr1 receptor a high-throughput assay to probe inhibition of the receptor guanylate cyclase Npr1 was developed. The assay was designed taking advantage of Promega's GloSensor™ technology (Promega, Madison, Wis.). This technology involves the expression of a cyclic guanosine monophosphate (cGMP) biosensor, comprised of a firefly luciferase variant that was coupled to the cGMP binding domain of human phosphodiesterase 5A, and loading of cells with a cell-permeable luciferase substrate to monitor cGMP production by Npr1 in real time in live cells. Briefly, human embryonic kidney 293 cells stably expressing the human Npr1 and the pGloSensor™-40F cGMP vector (“pGloSensor™-40F”) were generated. Stimulating these cells with the Npr1 agonists human NppA or NppB, luciferase-induced light production could be detected in a dose-dependent manner. HEK293 cells stably expressing human Npr2 and pGS-40F and cells only expressing pGS-40F were also generated to conduct secondary counter screens. In these cells, NppC or sodium nitroprusside were used to stimulate Npr2 or soluble guanylate cyclase which is endogenously expressed in HEK293 cells, respectively. The Npr2-NppC counter screen was employed to search for agents that minimally effected this agonist-receptor interaction. The Npr2-NppC system was used because the side effects of most drugs occur on related receptors. Npr1 and Npr2 are the most related receptors in sequence and function and there are no additional active receptor subtypes in this family of receptors. The procedure is described in detail below.
Measurement of intracellular cGMP production in HEK-hNpr1-cGMP-sensor cells was scaled to 4 μl volumes in 1536-well format and primary screening was performed in an automated manner in 7- to 11-point qHTS. Cells (1.5×10^3) were plated in assay medium in white, solid bottom TC treated 1536-well plates (Greiner Bio-One) with a Multidrop™ Combi Reagent Dispenser (Thermo Fisher Scientific). Cells were incubated at 37° C., 5% CO2 and 95% humidity for 16 hours and 1 μl of GloSensor™ reagent at a final assay concentration of 2% or assay medium as background control was added to respective wells with a BioRAPTR Flying Reagent Dispenser™ (Beckman Coulter, Schaumburg, Ill.). Cells were incubated at room temperature for 2 hours, protected from light. Compound (23 nl) was transferred by a pintool (Kalypsys, San Diego, Calif.) in the concentration range of […] to 46.1 μM along with DMSO and a titration of A-71915 from top concentration 38.3 μM to 1.7 nM in columns 1-4 of each plate as vehicle and positive controls, respectively. Cells were incubated with compound for 30 minutes at room temperature, protected from light. Pre-agonist luminescence for each plate was read on a ViewLux™ plate reader (PerkinElmer). Human NppA (1 μl) at a final assay concentration of 0.1 nM, or C02-independent media were added to respective wells with a BioRAPTR Flying Reagent Dispenser™ (Beckman Coulter). Plates were incubated for 20 minutes at room temperature, protected from light, and luminescence was read on a ViewLux™ plate reader.
Pre-agonist and post-agonist data were normalized by plate to corresponding intra-plate controls as described in Inglese et al., PNAS USA, 103: 11473-11478 (2006) (which is incorporated herein by reference, in its entirety). Assay statistics including S:N and Z′ were calculated using the same respective controls. Pre-agonist data were normalized to the average signal of DMSO-treated wells with 2% GoSensor™ reagent as 0% and the average signal of DMSO-treated wells with assay medium as −100% activity. Post-agonist data were normalized to the average signal of DMSO-treated wells with 2% GoSensor™ reagent and 0.1 nM hNppA as 0% and the average signal of wells treated with 38.3 μM A-71915 with 2% GloSensor™ reagent and 0.1 nM hNppA as −100% activity. […]

[3] = Table 1, biochemical assay, read-out: IC50 biochem assay
[4] = membranes of HEK-hNpr1-cGMP-sensor cells, hNppa-stimulated
[5] = membranes of HEK-hNpr1-cGMP-sensor cells, hNppa-stimulated, read-out: IC50 [μM] (mean ± SEM), membrane cyclase assay
[6] = Table 1, cell-based GloSensor assay of hNpr1 inhibition, read-out: IC50 GloSensor™ assay
[7] = qHTS follow-up, hNppa-stimulated, four-parameter fit, read-out: IC50, HEK-hNpr1-cGMP-sensor cells
[8] = qHTS follow-up, hNppa-stimulated

| IC50 (hNpr1 [1]; [3]) [µM] | Ki (hNpr1 [1]) [µM] | Imax [%] (mean ± SEM), membrane cyclase assay (hNpr1 [1]; [4]) | IC50 (hNpr1 [1]; [5]) [µM] | IC50 (hNpr1 [2]; [6]) [µM] | IC50 (hNpr1 [2]; [7]) [µM] | Imax, HEK-hNpr1-cGMP-sensor cells (hNpr1 [2]; [8]) [%] | SMILES |
| --- | --- | --- | --- | --- | --- | --- | --- |
| 0.766 | 0.11 ± 0.275 | −99.4 ± 0.5 | 0.8 ± 1.9 | 11.2 | 24 ± 1.2 | −15 ± 3 | COc1ccccc1-c1n[nH]c2ncc(C(=O)NCc3cccnc3)nc12 [JS-6, 3-(2-methoxyphenyl)-N-(pyridin-3-ylmethyl)-1H-pyrazolo[3,4-b]pyrazine-5-carboxamide] |
| 18.6 | 1.87 ± 0.723 | −99.0 ± 0.0 | 12.7 ± 4.9 | 6.31 | 117 ± 75 | −286 ± 966 | CN(Cc1ccccc1)C(=O)c1cn2ccnc(-c3ccccc3)c2n1 [JS-14, N-benzyl-N-methyl-8-phenylimidazo[1,2-a]pyrazine-2-carboxamide] |
| 2.2 | 0.41 ± 0.006 | −96.1 ± 3.7 | 2.8 ± 0.04 | 14.1 | 16 ± 13 | −110 ± 10 | COc1cc(CN2CCC(C)(NC(C)=O)CC2)cc(-c2ccncc2)c1 [JS-4, N-(1-(3-methoxy-5-(pyridin-4-yl)benzyl)-4-methylpiperidin-4-yl)acetamide] |

Reference: patent US11324725B2, “Compositions and methods for the inhibition of pruritus” (The United States of America, as represented by the …, priority 2017, dated 2022)
